Measured values from patent US8969554B2, “6-acyl-1,2,4-triazine-3,5-dione derivative and herbicides” (Kumiai Chemical Industry Co., Ltd., priority 2010, dated 2015).

Key:
Format in all cases: in vivo
Echinochloa oryzicola = experiment: Herbicidal activity by paddy field soil treatment (Test Example 1); set-up: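 index 0 to 10 in 10% steps of herbicidal effect with 10 meaning complete death and 0 below 10%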; settings: 1000 g of effective component per hectare, evaluated on day 21 after the treatment, criteria of Table 72
How it was run: (§1)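 Using sown, 3 cm-flooded paddy soil pots, we apply diluted wettable powder to the water on day 1 post-sowing (1000 g active/ha), keep plants in a greenhouse, and grade herbicidal effects 21 days post-treatment.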

Monochoria vaginalis = experiment: as above; set-up: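 index 0 to 10 in 10% steps of herbicidal effect with 10 meaning complete death and 0 below 10%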; settings: 1000 g of effective component per hectare, evaluated on day 21 after the treatment, criteria of Table 72
How it was run: as §1

Scirpus juncoides Rocxb. = experiment: as above; set-up: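 index 0 to 10 in 10% steps of herbicidal effect with 10 meaning complete death and 0 below 10%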; settings: applied on water surface, 1000 g of effective component per hectare, day 21 after the treatment
How it was run: as §1

A. retroflexus [1] = experiment: Herbicidal activity by field soil treatment (Test example 2); set-up: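 index 0 to 10 in 10% steps of herbicidal effect with 10 meaning complete death and 0 below 10%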; settings: 1000 g effective component per hectare, day 21 after the treatment
How it was run: (§2)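 Pre-covered sown seed in field-soil pots (80 cm^2) got a soil-surface application of 1000 g/ha active ingredient, sprayed as a diluted wettable powder at 1000 L/ha water volume. Greenhouse-grown; herbicidal activity graded by criteria at 21 days post-application.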

Echinochloa crus-galli [2] = experiment: as above; set-up: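 index 0 to 10 in 10% steps of herbicidal effect with 10 meaning complete death and 0 below 10%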; settings: 1000 g effective component per hectare, day 21 after the treatment
How it was run: as §2

Indian millet [3] = experiment: as above; set-up: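 index 0 to 10 in 10% steps of herbicidal effect with 10 meaning complete death and 0 below 10%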; settings: 1000 g effective component per hectare, day 21 after the treatment
How it was run: as §2

A. retroflexus [4] = experiment: Herbicidal activity by field foliage treatment (Test example 3); set-up: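 index 0 to 10 in 10% steps of herbicidal effect with 10 meaning complete death and 0 below 10%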; settings: 1000 g effective component per hectare, day 14 after the treatment
How it was run: (§3)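 Greenhouse foliar treatment at 1000 g a.i./ha of 2-week-old plants; herbicidal score at day 14.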

Indian millet [5] = experiment: as above; set-up: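 index 0 to 10 in 10% steps of herbicidal effect with 10 meaning complete death and 0 below 10%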; settings: 1000 g effective component per hectare, day 14 after the treatment
How it was run: as §3

Echinochloa crus-galli [6] = experiment: as above; set-up: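 index 0 to 10 in 10% steps of herbicidal effect with 10 meaning complete death and 0 below 10%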; settings: 1000 g effective component per hectare, day 14 after the treatment
How it was run: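 Herbicidal effect was rated on day 14 following a foliar spray of 1000 g active ingredient per hectare, applied as water-diluted wettable powder at 1000 L/ha. Plants had been raised for 2 weeks in field soil under greenhouse conditions before spraying.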

Setaria viridis = experiment: as above; settings: 1000 g effective component per hectare, day 14 after the treatment;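 note: index 0 to 10 in 10% steps of herbicidal effect with 10 meaning complete death and 0 below 10%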
Procedure: Test example 3 Test for Determining Herbicidal Activity by Field Foliage Treatment A 80 cm^2 wide plastic pot was filled with a field soil and seeds of each of Indian millet and A. retroflexus were sowed and then incubated for 2 weeks in a green house. The wettable powder produced with reference to the Formulation example 1 was diluted water, and applied from the air to entire body of the plant as foliage treatment by using a small sprayer in an amount of 1000 liters per hectare so that the effective component is 1000 g per hectare. After that, the plants were cultivated in a greenhouse, and on day 14 after the treatment, evaluation was made by the criteria described in Table 72 for determining the herbicidal effects.

SMILES | Herbicidal effects index number, Echinochloa oryzicola (Echinochloa oryzicola) | Herbicidal effects index number, Monochoria vaginalis (Monochoria vaginalis) | herbicidal effect index, S. juncoides Rocxb. (Scirpus juncoides Rocxb.) | herbicidal effect index, Amaranthus retroflexus (A. retroflexus [1]) | herbicidal effect index, Echinochloa crus-galli (Echinochloa crus-galli [2]) | herbicidal effect index, Abutilon theophrasti (Indian millet [3]) | herbicidal effect index, Amaranthus retroflexus (A. retroflexus [4]) | herbicidal effect index, Abutilon theophrasti (Indian millet [5]) | herbicidal effect index, Echinochloa crus-galli (Echinochloa crus-galli [6]) | herbicidal effect index, Setaria viridis (Setaria viridis)
Cn1c(=O)c(C(=O)C2=C(O)CCCC2=O)nn(-c2ccccn2)c1=O [I-274] | 8 | 8 | 4 | 7 | 7 | 8 | 9 | 8 | 9 | 8
Cn1nc(C(=O)C2=C(O)CCCC2=O)c(=O)n(-c2ccc(F)cn2)c1=O [I-184] | 10 | 10 | 10 | 10 | 8 | 10 | 10 | 9 | 10 | 8
CSc1c(Cl)cc(-n2c(=O)c(C(=O)O)nn(C)c2=O)cc1Cl [V-300] | 10 | 10 | 10 | 10 | 7 | 9 | 10 | 9 | 8 | 8
Cn1nc(C(=O)C2=C(O)CCCC2=O)c(=O)n(-c2ccsc2)c1=O [I-199] | 9 | 8 | 9 | 10 | 9 | 10 | 9 | 9 | 10 | 8
CCn1c(=O)c(C(=O)C2=C(O)CCCC2=O)nn(-c2ccccn2)c1=O [I-275] | 9 | 10 | 8 | 10 | 8 | 10 | 9 | 9 | 9 | 8
Cn1nc(C(=O)C2=C(O)CCCC2=O)c(=O)n(-c2ccc(F)cc2F)c1=O [I-78] | 10 | 10 | 10 | 10 | 10 | 10 | 10 | 10 | 10 | 10
CON=C(C)Cn1c(=O)c(C(=O)O)nn(C)c1=O [V-365] | 10 | 10 | 10 | 10 | 7 | 10 | 10 | 10 | 9 | 10
Cc1ccc(Cl)cc1-n1c(=O)c(C(=O)C2=C(O)CCCC2=O)nn(C)c1=O [I-138] | 10 | 10 | 10 | 10 | 9 | 9 | 10 | 9 | 8 | 8
CC(CCn1c(=O)c(C(=O)C2=C(O)CCCC2=O)nn(C)c1=O)=C(F)F [I-27] | 10 | 10 | 10 | 10 | 10 | 10 | 9 | 9 | 9 | 6
CC(C)N(c1ccccc1)n1c(=O)c(C(=O)O)nn(C)c1=O [V-369] | 10 | 10 | 10 | 7 | 7 | 7 | 9 | 8 | 9 | 7
Cn1nc(C(=O)C2=C(O)CCCC2=O)c(=O)n(-c2cc(F)c(F)c(F)c2)c1=O [I-302] | 10 | 10 | 10 | 10 | 7 | 10 | 10 | 10 | 10 | 10
Cn1nc(C(=O)C2=C(O)C(C)(C)CCC2=O)c(=O)n(-c2ccccc2)c1=O [VI-5] | 10 | 10 | 10 | 10 | 8 | 10 | 10 | 10 | 10 | 10
CC(C)N(c1ccccc1)n1c(=O)c(C(=O)C2=C(O)CCCC2=O)nn(C)c1=O [I-475] | 10 | 10 | 10 | 7 | 7 | 7 | 9 | 8 | 9 | 7
